Test results as given in patent publication US10239844B2, “Disubstituted triazole analogs” (BioVentures, LLC, priority 2014, dated 2019).

Tests used:
Hs578T cells = test: Hs578T cell viability, Calcein-AM fluorescence, 48 hours; assay type: cell-based; conditions: Homo sapiens, Hs-578T
Experimental: Some of these compounds were also screened against breast cancer cell line Hs578T. Briefly, Hs578T cells were seeded at 3,000 cells per well into 96-well plates and incubated overnight at 37° C. in DMEM (Dulbecco's Modified Eagle's Medium) containing 10% FBS (Fetal Bovine Serum) medium. The following day, various concentrations of combretastin analogs, or vehicle, were added to each plate and the plates were then incubated for 48 hours. Then, cells were washed twice with Dulbecco's Phosphate-Buffered Saline (DPBS) pH 7.4 and incubated with 2 μM Calcein-AM for 30 minutes at 25° C. Fluorescence was measured using a 490 nm excitation filter and a 520 nm emission filter. The fluorescence intensity is proportional to the number of viable cells. The fluorescence intensity of control (untreated) cells was taken as 100% viability. The relative cell viability compared to control was calculated by using the following formula: Cell viability (%)=Fluorescence intensity of treated cells/Fluorescence intensity of untreated cells×100.
The GI50 values (growth inhibition; anti-proliferation) were calculated using GraphPad prism (San Diego, Calif.) by plotting the percent cell viability as a function of the compound concentration and fit to a four-parameter logistic model. The data represents mean±standard deviation of three independent experiments.

[1] = test system: GFP expressing leukemia cells; test: In vivo anti-leukemic activity, GFP expressing leukemia cells injected into mice; conditions: 3.5 mg/kg
Experimental: The anti-leukemic activity of Compound 8 (FIG. 1) was evaluated in vivo. GFP expressing leukemia cells were injected into mice. One week post injection, mice were treated with Compound 8 at 3.5 mg/kg or DMSO (control) (FIG. 11A). Mice were imaged one week later. […] Further, bone marrow was isolated and the percent of GFP expressing AML stem cells was quantitated.

Q: What does the source list for `COc1cc(-c2n[nH]nc2-c2cc3ccccc3s2)cc(OC)c1OC` [PNR-7-74, 4-(benzo[b]thiophen-2-yl)-5-(3,4,5-trimethoxyphenyl)-2H-1,2,3-triazole]?
A: GI50 (Hs578T cells): 10.3 nM; melting point: 189 to 191 °C

Q: Which GI50 (Hs578T cells) does the source give for `COc1cc(OC)cc(-c2n[nH]nc2-c2cc3ccccc3s2)c1` [PNR-7-83, 4-(benzo[b]thiophen-2-yl)-5-(3,5-dimethoxyphenyl)-2H-1,2,3-triazole] here?
A: 66.5 nM

Q: Which GI50 (Hs578T cells) does the source give for `COc1cc(-c2n[nH]nc2-c2cc3ccccc3o2)cc(OC)c1OC` [PNR-7-81, 4-(benzofuran-2-yl)-5-(3,4,5-trimethoxyphenyl)-2H-1,2,3-triazole] here?
A: 20.3 nM

Q: And the melting point?
A: 158 to 160 °C

Q: Which “tumor shrinkage, imaging of GFP expressing cells (FIG. 11C)” value ([1]; imaged one week after treatment, relative to DMSO and untreated mice) does the source give for `COc1cc(-c2n[nH]nc2-c2ccc3c(c2)OCO3)cc(OC)c1OC` [Compound 8, 4-(benzo[d][1,3]dioxol-5-yl)-5-(3,4,5-trimethoxyphenyl)-2H-1,2,3-triazole] here?
A: significant tumor shrinkage

Q: And the “percent of GFP expressing AML stem cells in bone marrow (FIG. 10)” value ([1]; isolated bone marrow)?
A: significant reduction in AML stem cells

Q: What about the “average radiance (FIG. 11B)” value ([1]; versus DMSO control) of the same compound?
A: significant reduction in leukemia cells
